Drawing on US20250179103A1, “6-OXODECAHYDROPYRROLO[1,2-A][1,5]DIAZOCINE AND 6-OXODECAHYDRO-4H-PYRROLO[2,1-D][1,5]THIAZOCINE DERIVATIVES AS STAT3 AND STAT6 MODULATORS FOR THE TREATMENT OF CANCER AND INFLAMMATORY CONDITIONS” (Recludix Pharma, Inc., priority 2022, published 2025), this text covers IC50 for 16 molecules.

Molecules are shown by their SMILES.

Experiment [1] deals with T1, Recombinant STAT6 protein (STAT6(W123-T658)) (Homo sapiens, UniProt P42226).
T1 construct: Recombinant STAT6 protein (STAT6(W123-T658))
T1 sequence (P42226 123-658): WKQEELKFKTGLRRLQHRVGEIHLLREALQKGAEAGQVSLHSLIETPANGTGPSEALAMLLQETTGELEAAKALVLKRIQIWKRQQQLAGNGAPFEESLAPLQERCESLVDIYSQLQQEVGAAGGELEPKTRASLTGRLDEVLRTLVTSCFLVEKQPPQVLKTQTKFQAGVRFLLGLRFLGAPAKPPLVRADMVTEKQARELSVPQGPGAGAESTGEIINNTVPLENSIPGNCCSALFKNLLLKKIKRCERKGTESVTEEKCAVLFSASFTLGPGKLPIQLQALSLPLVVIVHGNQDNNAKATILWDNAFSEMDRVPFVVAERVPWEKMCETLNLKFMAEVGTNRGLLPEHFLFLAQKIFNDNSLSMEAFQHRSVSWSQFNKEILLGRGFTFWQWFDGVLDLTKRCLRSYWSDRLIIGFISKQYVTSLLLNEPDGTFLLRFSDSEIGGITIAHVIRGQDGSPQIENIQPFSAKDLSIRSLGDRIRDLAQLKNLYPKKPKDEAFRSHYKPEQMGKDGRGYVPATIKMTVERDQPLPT
Put plainly: STAT6 Fluorescence Polarization (FP) Assay. The settings on record: STAT6(W123-T658) 250 nM, probe 5-FAM-ApYKPFQDLI-NH2 2 nM, 45-minute incubation. Type of experiment: binding. The gist of the method:
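Displacement of a fluorescent phosphotyrosine peptide (5-FAM-ApYKPFQDLI-NH2, 2 nM) from STAT6(W123-T658) (250 nM), 1% DMSO, pH 7.4 HEPES buffer. After 45 min at room temperature, polarization (mP) was plotted versus log compound concentration and fitted by nonlinear regression to give IC50.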

In experiment [2] the target is T2, Recombinant STAT3 protein (STAT3(G127-I722)) (Homo sapiens, UniProt P40763).
T2 construct: Recombinant STAT3 protein (STAT3(G127-I722))
As to the kind of experiment: STAT3 Fluorescence Polarization (FP) Assay. The following applies: STAT3(G127-I722) 25 nM, probe 5-FAM-GpYLPQTV-NH2 2 nM, 45-minute incubation. Type of experiment: binding. The gist of the method:
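STAT3(G127-I722), 25 nM, was mixed with 2 nM 5-FAM-GpYLPQTV-NH2 probe in HEPES pH 7.4 buffer with 1% DMSO and serially diluted compound. FP (mP) was read after 45 min at room temperature. IC50 came from nonlinear regression.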
For orientation: Fluorescence polarisation rises when a labelled molecule tumbles more slowly, as on binding a larger partner.

T2 sequence (P40763 127-722): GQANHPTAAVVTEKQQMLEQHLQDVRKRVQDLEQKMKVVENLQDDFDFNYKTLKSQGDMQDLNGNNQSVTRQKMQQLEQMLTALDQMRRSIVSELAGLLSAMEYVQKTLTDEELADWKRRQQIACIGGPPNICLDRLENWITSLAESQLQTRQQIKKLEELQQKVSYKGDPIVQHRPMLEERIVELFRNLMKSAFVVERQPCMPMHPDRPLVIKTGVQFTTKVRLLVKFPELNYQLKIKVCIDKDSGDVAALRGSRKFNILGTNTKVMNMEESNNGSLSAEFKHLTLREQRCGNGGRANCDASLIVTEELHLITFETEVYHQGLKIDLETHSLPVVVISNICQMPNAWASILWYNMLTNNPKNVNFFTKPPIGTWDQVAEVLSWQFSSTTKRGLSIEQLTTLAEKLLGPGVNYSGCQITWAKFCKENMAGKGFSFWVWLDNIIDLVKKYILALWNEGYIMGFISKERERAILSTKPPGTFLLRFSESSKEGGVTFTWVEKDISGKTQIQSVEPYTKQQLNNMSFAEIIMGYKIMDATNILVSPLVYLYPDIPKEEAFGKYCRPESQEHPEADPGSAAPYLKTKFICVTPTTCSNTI

As for `O=C(N[C@H]1CNCC[C@H]2CC[C@@H](C(=O)N3CC(C(=O)N4CCOCC4)C3)N2C1=O)c1cc2cc(C(F)(F)P(=O)(O)O)ccc2s1` [Compound 256, (difluoro(2-(((5S,8S,10aR)-8-(3-(morpholine-4-carbonyl)azetidine-1-carbonyl)-6-oxodecahydropyrrolo[1,2-a][1,5]diazocin-5-yl)carbamoyl)benzo[b]thiophen-5-yl)methyl)phosphonic acid], the IC50 – broadly, the concentration needed to halve the response being measured – is 3000 to 30000 nM in experiment [1] and 100 to 1000 nM in experiment [2].
Take `CC(=O)N1CC[C@H]2CC[C@@H](C(=O)N[C@H]3CN(C(C)=O)C[C@@H]3O)N2C(=O)[C@@H](NC(=O)c2cc3cc(C(F)(F)P(=O)(O)O)ccc3s2)C1` [Compound 182, ((2-(((5S,8S,10aR)-3-acetyl-8-(((3S,4S)-1-acetyl-4-hydroxypyrrolidin-3-yl)carbamoyl)-6-oxodecahydropyrrolo[1,2-a][1,5]diazocin-5-yl)carbamoyl)benzo[b]thiophen-5-yl)difluoromethyl)phosphonic acid]: the values for the IC50 in experiment [1] and in experiment [2] were 300 to 3000 nM and 100 to 1000 nM, respectively.
For the molecule `CC(C)CN1CC[C@H]2CC[C@@H](C(=O)N(C)C)N2C(=O)[C@@H](NC(=O)c2cc3cc(C(F)(F)P(=O)(O)O)ccc3[nH]2)C1` [Compound 224, ((2-(((5S,8S,10aR)-8-(dimethylcarbamoyl)-3-isobutyl-6-oxodecahydropyrrolo[1,2-a][1,5]diazocin-5-yl)carbamoyl)-1H-indol-5-yl)difluoromethyl)phosphonic acid], the values for the IC50 in experiment [1] and in experiment [2] were 3000 to 30000 nM and 1000 to 10000 nM, respectively.
For the molecule `CC(=O)N1CC[C@H]2CC[C@@H](C(=O)N3CC(C#N)C4(C3)C(=O)Nc3ccccc34)N2C(=O)[C@@H](NC(=O)c2cc3cc(C(F)(F)P(=O)(O)O)ccc3s2)C1` (stereo partly drawn) [Compound 61, ((2-(((5S,8S,10aR)-3-acetyl-8-(4′-cyano-2-oxospiro[indoline-3,3′-pyrrolidine]-1′-carbonyl)-6-oxodecahydropyrrolo[1,2-a][1,5]diazocin-5-yl)carbamoyl)benzo[b]thiophen-5-yl)difluoromethyl)phosphonic acid], the figures for the half-inhibitory concentration (IC50) in experiment [1] and in experiment [2] were 300 to 3000 nM and 100 to 1000 nM, respectively.
Taken in the same sequence, the figures for `CCN(C)CCCN(C)C(=O)[C@@H]1CC[C@@H]2CCN(C(C)=O)C[C@H](NC(=O)c3cc4cc(C(F)(F)P(=O)(O)O)ccc4[nH]3)C(=O)N21` [Compound 33, ((2-(((5S,8S,10aR)-3-acetyl-8-((3-(ethyl(methyl)amino)propyl)(methyl)carbamoyl)-6-oxodecahydropyrrolo[1,2-a][1,5]diazocin-5-yl)carbamoyl)-1H-indol-5-yl)difluoromethyl)phosphonic acid] were 3000 to 30000 nM and 1000 to 10000 nM.
Taken in the same sequence, the figures for `Cc1ccc2onc(C(=O)N3CC[C@H]4CC[C@@H](C(=O)N5CCOCC5)N4C(=O)[C@@H](NC(=O)c4ccc5ncc(C(F)P(=O)(O)O)cc5c4)C3)c2c1` (stereo partly drawn) [Compound 376, (fluoro(6-(((5S,8S, 10aR)-3-(5-methylbenzo[d]isoxazole-3-carbonyl)-8-(morpholine-4-carbonyl)-6-oxodecahydropyrrolo [1,2-a][1,5]diazocin-5-yl)carbamoyl)quinolin-3-yl)methyl)phosphonic acid] were 300 to 3000 nM and more than 10000 nM.
Taken in the same sequence, the figures for `CC(=O)N1CC[C@H]2CC[C@@H](C(=O)N3C[C@@H](C#N)C[C@@H]3Cc3ccccc3)N2C(=O)[C@@H](NC(=O)c2cc3cc(C(F)(F)P(=O)(O)O)ccc3s2)C1` [Compound 42, ((2-(((5S,8S,10aR)-3-acetyl-8-((2R,4S)-2-benzyl-4-cyanopyrrolidine-1-carbonyl)-6-oxodecahydropyrrolo[1,2-a][1,5]diazocin-5-yl)carbamoyl)benzo[b]thiophen-5-yl)difluoromethyl)phosphonic acid] were 300 to 3000 nM and 1000 to 10000 nM.
In the case of `COc1cc(C(=O)N[C@H]2CN(C(=O)c3noc4ccc(C)cc34)CC[C@H]3CC[C@@H](C(=O)N4CCOCC4)N3C2=O)cc2cc(CP(=O)(O)O)ccc12` [Compound 388, ((5-methoxy-7-(((5S, 8S,10aR)-3-(5-methylbenzo[d]isoxazole-3-carbonyl)-8-(morpholine-4-carbonyl)-6-oxodecahydropyrrolo [1,2-a][1,5]diazocin-5-yl)carbamoyl)naphthalen-2-yl)methyl) phosphonic acid], the 50% inhibitory concentration (IC50) in experiment [1] is 300 to 3000 nM; in experiment [2], more than 10000 nM.
Taken in the same sequence, the figures for `CC(=O)N1CC[C@H]2CC[C@@H](C(=O)N(C)c3ccc(C#N)cc3)N2C(=O)[C@@H](NC(=O)c2cc3cc(C(F)(F)P(=O)(O)O)ccc3[nH]2)C1` [Compound 168, ((2-(((5S,8S,10aR)-3-acetyl-8-((4-cyanophenyl)(methyl)carbamoyl)-6-oxodecahydropyrrolo[1,2-a][1,5]diazocin-5-yl)carbamoyl)-1H-indol-5-yl)difluoromethyl)phosphonic acid] were 300 to 3000 nM and 1000 to 10000 nM.
As for `N#CC1CN(C(=O)C2CCC3CCN(C(=O)OCc4ccccc4)CC(NC(=O)c4cc5cc(C(F)(F)P(=O)(O)O)ccc5s4)C(=O)N32)CC1c1ccccc1` (mixture of isomers) [Compound 9, ((2-(((5S,8S,10aR)-3-((benzyloxy)carbonyl)-8-((rel-trans)-3-cyano-4-phenylpyrrolidine-1-carbonyl)-6-oxodecahydropyrrolo[1,2-a][1,5]diazocin-5-yl)carbamoyl)benzo[b]thiophen-5-yl)difluoromethyl)phosphonic acid], the IC50 is not above 300 nM in experiment [1] and 100 to 1000 nM in experiment [2].
For the molecule `CCC(=O)N1CC[C@@H](NC(=O)[C@@H]2CC[C@@H]3CCN(C(C)=O)C[C@H](NC(=O)c4cc5cc(C(F)(F)P(=O)(O)O)ccc5[nH]4)C(=O)N32)C1` [Compound 34, ((2-(((5S,8S,10aR)-3-aceytl-6-oxo-8-(((R)-1-propionylpyrrolidin-3-yl)carbamoyl)decahydropyrrolo[1,2-a][1,5]diazocin-5-yl)carbamoyl)-1H-indol-5-yl)difluoromethyl)phosphonic acid], the values for the concentration for half-maximal inhibition (IC50) in experiment [1] and in experiment [2] were 300 to 3000 nM and 100 to 1000 nM, respectively.
Taken in the same sequence, the figures for `CC(=O)N1CC[C@H]2CC[C@@H](C(=O)Nc3ccc(-c4ccccc4)cc3)N2C(=O)[C@@H](NC(=O)/C=C/c2ccc(C(F)(F)P(=O)(O)O)cc2)C1` [Compound 121, ((4-((E)-3-(((5S,8S,10aR)-8-([1,1′-biphenyl]-4-ylcarbamoyl)-3-acetyl-6-oxodecahydropyrrolo[1,2-a][1,5]diazocin-5-yl)amino)-3-oxoprop-1-en-1-yl)phenyl)difluoromethyl)phosphonic acid] were 3000 to 30000 nM and more than 10000 nM.
Consider `CC(=O)N1CC[C@H]2CC[C@@H](C(=O)N(C)c3ccc(-c4ccccc4)cc3)N2C(=O)[C@@H](NC(=O)c2cc3cc(C(F)(F)P(=O)(O)O)ccc3s2)C1` [Compound 96, ((2-(((5S,8S,10aR)-8-([1,1′-biphenyl]-4-yl(methyl)carbamoyl)-3-acetyl-6-oxodecahydropyrrolo[1,2-a][1,5]diazocin-5-yl)carbamoyl)benzo[b]thiophen-5-yl)difluoromethyl)phosphonic acid], for which the IC50 in experiment [1] was not above 300 nM; in experiment [2], 1000 to 10000 nM.
Taken in the same sequence, the figures for `CC(=O)N1CC(NC(=O)[C@@H]2CC[C@@H]3CCN(C(C)=O)C[C@H](NC(=O)c4cc5cc(C(F)(F)P(=O)(O)O)ccc5[nH]4)C(=O)N32)C1` [Compound 24, ((2-(((5S,8S,10aR)-3-acetyl-8-((1-acetylazetidin-3-yl)carbamoyl)-6-oxodecahydropyrrolo[1,2-a][1,5]diazocin-5-yl)carbamoyl)-1H-indol-5-yl)difluoromethyl)phosphonic acid] were 300 to 3000 nM and 100 to 1000 nM.
Taken in the same sequence, the figures for `CC(=O)N1CC[C@H]2CC[C@@H](C(=O)N(C)CCC#N)N2C(=O)[C@@H](NC(=O)c2cc3cc(C(F)(F)P(=O)(O)O)ccc3s2)C1` [Compound 90, ((2-(((5S,8S,10aR)-3-acetyl-8-((2-cyanoethyl)(methyl)carbamoyl)-6-oxodecahydropyrrolo[1,2-a][1,5]diazocin-5-yl)carbamoyl)benzo[b]thiophen-5-yl)difluoromethyl)phosphonic acid] were 300 to 3000 nM and 1000 to 10000 nM.
In the case of `CC(=O)N1CC[C@H]2CC[C@@H](C(=O)N3C[C@H](c4ccccc4)[C@@H](C#N)C3)N2C(=O)[C@@H](NC(=O)c2ccc3ccc(C(F)(F)P(=O)(O)O)cc3c2)C1` (relative stereo) [Compound 203, ((7-(((5S,8S,10aR)-3-acetyl-8-(rel-trans)-3-cyano-4-phenylpyrrolidine-1-carbonyl)-6-oxodecahydropyrrolo[1,2-a][1,5]diazocin-5-yl)carbamoyl)naphthalen-2-yl)difluoromethyl)phosphonic acid], the concentration for half-maximal inhibition (IC50) in experiment [1] is not above 300 nM; in experiment [2], 1000 to 10000 nM.
